Experimental data as given in US8178658B2 (Dow AgroSciences, LLC, priority 2008, dated 2012).

Columns and labels:
[1] = tested on: beet armyworm (BAW; Spodoptera exigua: Lepidoptera); assay: 96-well microtiter plate-based high throughput (HTS) diet bioassay on beet armyworm (BAW HTS); format: in vivo; details: for BAW HTS: BAW eggs, 12 μg test compound per well, mortality at 6 d post-treatment, mortality class
In short: (§1)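 Compound was layered onto artificial diet and dried, then infested: eggs for the 96-well test (12 μg per well, 29° C, dark) and 3–5 second instars for the 128-well tray (50 μg/cm^2, 25° C, 14:10 light-dark). Both ran six days before percent mortality was recorded and averaged across replicates or wells.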

[2] = tested on: beet armyworm (BAW; Spodoptera exigua: Lepidoptera); assay: 128-well diet tray assay on beet armyworm (BAW 50); format: in vivo; details: for BAW 50 ug/cm2: 128-well diet tray assay, 50 μg/cm^2 of test compound on diet, second instar BAW larvae, mortality class
In short: as §1

[3] = 96-well microtiter plate HTS diet assay

Row | SMILES | BAW HTS ([1]; 96-well HTS diet assay) | BAW HTS [1, 3] | BAW 50 ug/cm2 [2] | pest or weed control at 12 µg/well, 12 µg/well ([1]; Spodoptera exigua, 144 h, read-out: BAW HTS) [%] | pest or weed control at 50 µg/cm2, 50 µg/cm2 ([2]; Spodoptera exigua, 144 h, read-out: BAW 50 ug/cm2) [%]
1 | C=CCO[C@@H]1[C@@H](OC)[C@H](C)O[C@@H](OC(=O)Nc2ccc(-c3ncn(-c4ccc(OC(F)(F)F)cc4)n3)cc2)[C@@H]1OC [Compound 205] | A (the compound was tested and at least 50 percent mortality was observed) | A (the compound was tested and at least 50 percent mortality was observed) | A (the compound was tested and at least 50 percent mortality was observed) |  | 
2 | CCO[C@@H]1[C@@H](OCC)[C@H](C)O[C@@H](OC(=O)Nc2ccc(-c3ncn(-c4ccc(OC(F)(F)C(F)(F)F)cc4)n3)cc2)[C@@H]1OCC [Compound 206] | A (the compound was tested and at least 50 percent mortality was observed) | A (the compound was tested and at least 50 percent mortality was observed) | A (the compound was tested and at least 50 percent mortality was observed) |  | 
3 | CCCO[C@@H]1[C@@H](OC)[C@H](C)O[C@@H](OC(=O)Nc2ccc(-c3ncn(-c4ccc(OC(F)(F)C(F)(F)F)cc4)n3)cc2)[C@@H]1OC [Compound 207, {4-[1-(4-pentafluoroethyloxyphenyl)-1H-[1,2,4]triazol-3-yl]-phenyl}-carbamic acid (2S,3R,4R,5S,6S)-4-propoxy-3,5-dimethoxy-6-methyl-tetrahydropyran-2-yl ester] |  | B (either (1) the compound was tested and less than 50 percent mortality was observed or (2) the compound was not tested) | A (the compound was tested and at least 50 percent mortality was observed) | < 50 | > 50
4 | CO[C@@H]1[C@@H](OC)[C@H](C)O[C@H](OC(=O)Nc2ccc(-c3ncn(-c4ccc(OC(F)(F)C(F)(F)F)cc4)n3)cc2)[C@@H]1OC [Compound 208] | A (the compound was tested and at least 50 percent mortality was observed) | A (the compound was tested and at least 50 percent mortality was observed) | A (the compound was tested and at least 50 percent mortality was observed) |  | 
5 | CCCO[C@@H]1[C@@H](OC)[C@H](C)O[C@@H](OC(=O)Nc2ccc(-c3ncn(-c4ccc(OC(F)(F)F)cc4)n3)cc2)[C@@H]1OC [Compound 209] | A (the compound was tested and at least 50 percent mortality was observed) | A (the compound was tested and at least 50 percent mortality was observed) | A (the compound was tested and at least 50 percent mortality was observed) |  | 
6 | CCO[C@@H]1[C@@H](OC)[C@H](C)O[C@H](OC(=O)Nc2ccc(-c3ncn(-c4ccc(OC(F)(F)F)cc4)n3)cc2)[C@@H]1OC [Compound 210] | A (the compound was tested and at least 50 percent mortality was observed) | A (the compound was tested and at least 50 percent mortality was observed) | A (the compound was tested and at least 50 percent mortality was observed) |  | 
7 | CCCO[C@@H]1[C@@H](OC)[C@H](C)O[C@@H](OC(=O)Nc2ccc(-c3ncn(-c4ccc(OC(F)(F)C(F)(F)C(F)(F)F)cc4)n3)cc2)[C@@H]1OC [Compound 216] | A (the compound was tested and at least 50 percent mortality was observed) | A (the compound was tested and at least 50 percent mortality was observed) | A (the compound was tested and at least 50 percent mortality was observed) |  | 
8 | CCO[C@@H]1[C@@H](OC)[C@H](C)O[C@@H](OC(=O)Nc2ccc(-c3nc(CC(C)C)n(-c4ccc(OC(F)(F)F)cc4)n3)cc2)[C@@H]1OC [Compound 219] | B (either (1) the compound was tested and less than 50 percent mortality was observed or (2) the compound was not tested) | B (either (1) the compound was tested and less than 50 percent mortality was observed or (2) the compound was not tested) | A (the compound was tested and at least 50 percent mortality was observed) |  | 
